Results published in PMC3760277 (Journal of neurovirology, 2013).
Read-outs that look alike come from different tables or passages of the source.

How the values were obtained:
[1] = Steady-state plasma pharmacokinetics; assay type: in vivo, HIV-infected patients (human); conditions: for AUC(0-t): AUC0–24, Visit 2 (day 21), ATV/RTV 300/100 mg once daily with CEP-1347 50 mg twice daily, arithmetic mean (SD), n=19
[2] = cited from earlier work
[3] = tested on: HIV-1; experiment: Plasma viral load during the 21-day study; assay type: in vivo, HIV-infected patients (human); conditions: day 21, antiretroviral therapy (ATV/RTV + TDF/FTC) with concurrent CEP-1347 50 mg twice daily; baseline 3.80±3.70
[4] = rats; background statement, ref not given; cited from earlier work
[5] = Safety and tolerability in the clinical study; assay type: in vivo, HIV-infected patients (human); conditions: CEP-1347 50 mg twice daily for 20 days with ATV/RTV and TDF/FTC
[6] = monkeys; background statement, ref not given; cited from earlier work
[7] = CEP-1347 50 mg twice daily with ATV/r, day 21, mean (SD)

AUC0–24 GMR (90 % CI) ([1]; human, in vivo)	Cmax GMR (90 % CI) ([1]; human, in vivo)	R GMR (90 % CI) ([1]; human, in vivo)	Tmax GMR (90 % CI) ([1]; human, in vivo)	Cmax ([1]; human, plasma, oral) [ng/mL]	half-life ([1]; human, plasma, oral) [h]	half-life ([1]; human, plasma, oral, 50 mg) [h]	AUC(0-t) ([1]; human, plasma, oral) [ng·h/mL]	Compound	Cmax ([1]; human, plasma, oral, 50 mg) [ng/mL]	Tmax ([1]; human, plasma, oral, 50 mg) [h]	further results
1.30 (0.92–1.85)	1.14 (0.79–1.67)	1.12 (1.05–1.20)	0.86 (0.67–1.11)	4000	12.7	15.9	49600	COC(=O)N[C@H](C(=O)N[C@@H](Cc1ccccc1)[C@@H](O)CN(Cc1ccc(-c2ccccn2)cc1)NC(=O)[C@@H](NC(=O)OC)C(C)(C)C)C(C)(C)C [ATV, Atazanavir]	4500	2	Clss/F ([1]; Visit 1 (day 1), ATV/RTV before CEP-1347, mean (SD)): 12.0 (10.3) L/h; Clss/F ([1]; Visit 1 (day 1), ATV/RTV before CEP-1347, mean (SD), listed as atazanavir): 12.0 L/h; Clss/F ([1]; Visit 2 (day 21), ATV/RTV with CEP-1347 50 mg twice daily, mean (SD)): 9.3 (10.7) L/h; Clss/F GMR (90 % CI) ([1]; human, in vivo): 0.77 (0.54–1.09); increase in T1/2 ([1]; human, in vivo): 31%; increase in accumulation ratio (R) ([1]; human, in vivo): 15%; Tmax ([1]; human, plasma, oral): 2 h; clearance ([2]; population analysis, patients given ATV/r at 300/100 mg/day, ref Colombo et al. 2006): 12.9 L/h; clearance ([2]; previously reported in patients, ref Haberl et al. 2010): 8.5 L/h
1.12 (0.90, 1.39)	1.07 (0.85, 1.34)	1.05 (0.94, 1.16)	0.89 (0.79, 1.15)	1400	5.9	5.8	13200	CC(C)c1nc(CN(C)C(=O)N[C@H](C(=O)N[C@@H](Cc2ccccc2)C[C@H](O)[C@H](Cc2ccccc2)NC(=O)OCc2cncs2)C(C)C)cs1 [RTV, Ritonavir]			T1/2 GMR (90 % CI) ([1]; human, in vivo): 1.20 (0.92, 1.56)

Compound	AUC0–24 GMR (90 % CI) ([1]; human, in vivo)	Cmax GMR (90 % CI) ([1]; human, in vivo)	R GMR (90 % CI) ([1]; human, in vivo)	Tmax GMR (90 % CI) ([1]; human, in vivo)	Cmax ([1]; human, plasma, oral) [ng/mL]	half-life ([1]; human, plasma, oral) [h]	half-life ([1]; human, plasma, oral, 50 mg) [h]	AUC(0-t) ([1]; human, plasma, oral) [ng·h/mL]	Cmax ([1]; human, plasma, oral, 50 mg) [ng/mL]	Tmax ([1]; human, plasma, oral, 50 mg) [h]	further results
CCSCc1ccc2c(c1)c1c3c(c4c5cc(CSCC)ccc5n5c4c1n2[C@H]1C[C@](O)(C(=O)OC)[C@]5(C)O1)CNC3=O [CEP-1347]							35.2		427	3	Clss/F [1, 7]: 22.3 (15.3) L/h; R (accumulation ratio) [1, 7]: 5.1 (1.5); AUC ([1]; human, plasma, oral, 50 mg): 2630 ng·h/mL; average plasma viral load [3]: 2.41±2.03 log copies/mL; recovery of single oral doses in feces [4]: at least 95%; tolerability [5]: well tolerated; recovery of single oral doses in feces [6]: at least 95%
